The text below walks through data of article PMC5612938, “A multiple biomarker assay for quality assessment of botanical drugs using a versatile microfluidic chip” (Scientific Reports, 2017).

For the assay, the target named is T1, Thrombin (from human plasma) (Homo sapiens, UniProt P00734).
T1 construct: Thrombin (from human plasma); purchased Sigma-Aldrich; host or cells: human plasma
Description: on-chip thrombin inhibition assay (S-2238 hydrolysis, absorbance 405 nm). Type of assay: biochemical. The conditions noted are these: for thrombin inhibition (in words): at tested concentrations. The procedure: To enhance the performance of the on-chip assay, experimental parameters such as concentrations of enzymes and substrates, substrate reaction time, and incubation time of samples and enzymes were stepwise optimized. The activity of thrombin was determined by measuring the hydrolysis of chromogenic substrate S-2238 (HD-Phe-Pip-Arg-pNA) at 405 nm. As depicted in Fig. 2a, the absorbance increased rapidly along with the elevated concentrations of thrombin, while it reached a plateau at 0.5 U/mL. […] Moreover, it was clear from Fig. 2d that the maximum inhibitory effect of QSYQ sample (I1 of Table 1 in this assay) on thrombin was observed after 60 min of incubation. Therefore, to achieve favorable response and prevent signal saturation, optimal assay conditions for thrombin were determined to be 0.2 U/mL, 0.31 mM, 30 min and 60 min for the final concentrations of thrombin and S-2238, substrate reaction time and incubation time, respectively. […] In this assay, the concentrations of ACE and FAPGG were finally set at 0.027 U/mL and 0.72 mM, where the background value was lower and the reaction time was relatively shorter (30 min).
The optimized protocol was first applied to assess the quality of 11 batches of QSYQ intermediates (Table 1). Enzyme inhibition (in percentages) was employed as an indicator of drug quality and calculated according to the following equations: thrombin inhibition (%) = [1 − (AQSYQ/Ablank)] × 100; ACE inhibition (%) = [1 − (ΔAQSYQ/ΔAblank)] × 100; where AQSYQ and Ablank were the absorbance of the test sample and the blank sample after the enzymatic reaction (the background value was subtracted), and ΔAQSYQ and ΔAblank were the absorbance decrease between 0 min and 30 min of the samples. A scatter plot was generated to display the inhibition result of thrombin and ACE simultaneously. […] Moreover, artificial abnormal samples I6, I7 and I8, each with one abnormal (pre-extracted) herb, presented relatively lower inhibitions compared with I1.
Thrombin (from human plasma), ACE (from rabbit lung), FAPGG and captopril were purchased from Sigma-Aldrich (St. Louis, USA). S-2238 was obtained from Aglyco (Beijing, China). AEBSF-HCl was purchased from Selleckchem (Houston, USA). Trizma base (Tris) was obtained from Sangon Biotech (Shanghai, China) and dimethyl sulfoxide (DMSO) from J&K Scientific (Beijing, China). All other chemicals were purchased from Sinopharm Chemical (Shanghai, China) unless otherwise indicated. 0.2 M Phosphate buffer (PB, pH 6.5), and 50 mM Tris-HCl buffer (200 mM NaCl, pH 8.3) were prepared as assay buffers for thrombin and ACE, respectively.
MBs (10 mg/mL) were diluted 10 times in PB or Tris-HCl buffer, and 10 μL of the diluted MBs (1 mg/mL) were injected into one channel of the chip using a syringe infusion pump (Harvard Apparatus, USA) and retained by an external magnet. Then, 10 μL of thrombin or ACE solution was added and incubated with MBs for two hours at room temperature to form enzyme-MB complexes. The magnet was manually controlled to move MBs back and forth to enhance the ratio of reaction. Subsequently, MBs were washed twice in assay buffer and magnetically transferred to the other channel through the fluidic bridge, whose opening and closing was controlled by a pneumatic valve. Next, 10 μL of sample solutions of tested drug and 10 μL of enzymatic substrate were sequentially infused to the channel by the pump and incubated with the enzyme. When the enzymatic reaction was finished, the MBs were retained in the channel, and air was injected into the channel from the inlet using a syringe to push all the reacted solution to a 384-well plate. The absorbance of the solution was then monitored at 405 nm (for S-2238) or 340 nm (for FAPGG) using an Infinite F200 spectrophotometer (Tecan, Männedorf, Switzerland). Moreover, after detection, the reaction channel was washed three times by assay buffer to remove unbound constituents. […]

Consider `O=C(O)C(O)Cc1ccc(O)c(O)c1` (stereo not shown) [Danshensu], for which the “thrombin inhibition (in words)” value is “good thrombin inhibitions”. Moreover, the inhibition rate (for thrombin, maximum inhibition rate observed in the assay) turned out to be 66.9%.
In general, IC50 refers to the concentration needed to halve the response being measured. With `O=C(/C=C/c1ccc(O)c2c1[C@H](C(=O)O[C@H](Cc1ccc(O)c(O)c1)C(=O)O)[C@@H](c1ccc(O)c(O)c1)O2)O[C@H](Cc1ccc(O)c(O)c1)C(=O)O` [Salvianolic acid B], the “thrombin inhibition (in words)” value was “good thrombin inhibitions”. Where the note is “for thrombin”, this molecule returned an IC50 of 81.9 µM.
